Results from US5258406A, “Sulfonimidamides” (priority 1992, dated 1993).
Where two headings read alike, the source gives them in different places.

Legend:
Assay type in all cases: in vivo
6C3HED lymphosarcoma = assay: animal or person
Lewis Lung Carcinoma = assay: Inhibition of Lewis Lung Carcinoma growth in mice; details: IP, DX 10
Procedure: (§1) The compounds were tested in C3H mice bearing a 6C3HED lymphosarcoma, also known as the Gardner lymphosarcoma (GLS), and in a variety of human tumor xenografts in CD1 nu/nu mice, including CX-1, LX-1, HXGC3, and VRC5. The 6C3HED lymphosarcoma was obtained from the Division of Cancer Treatment, National […] Institute, Tumor Bank, maintained at E. G. and G. Mason Research (Worcester, Mass.). The CX-1 human colon carcinoma and the LX-1 human lung carcinoma xenografts were obtained from the National Cancer Institute. The HXGC3 and VRC5 human colon xenografts were obtained from Dr. P. J. Houghton, St. Jude Children's Hospital in Memphis (see Br. J. Cancer, 37, 213 (1978)). First passage tumor was stored in liquid nitrogen using standard techniques. The transplanted tumor was reestablished from the Tumor Bank every six months or as needed. The tumor was maintained by serial passage twice weekly in C3H mice.
(§2) In the procedure the tumor was removed from passage animals and minced into 1- to 3-mm square fragments using sterile techniques. Tumor pieces were checked for sterility using both Antibiotic Medium 1 and Brain Heart Infusion (Difco, Detroit, Mich.). Recipient mice were shaved and tumor pieces were implanted subcutaneously in the auxiliary region by trocar. Drug therapy on the appropriate schedule was initiated on the day after tumor implant for 6C3HED and after a seven (7) day delay for xenografts (or other delay as noted in Table 2). The compound being tested was mixed with 2.5% Emulphor EL620 from GAF Corporation (1:40 dilution in saline). Food and water were provided ad libitium. The drug was administered orally in 0.5 ml of 2.5% Emulphor (unless otherwise indicated). The tumor was measured the day after treatment ended with two dimensional measurements (width and length) of the tumor taken using automated digital calipers interfaced to a microcomputer. Approximate weight for the tumor was calculated using the following formula [Worzalla, J. F., et al., Invest. New Drugs, 8, 241 (1990], (tumor weight in mg)=(width in mm)^2 ×(length in mm)/2.
(§3) At least one control group of an equal number of mice was treated with the same volume of 2.5% Emulphor only. The percent inhibition was determined by subtracting the ratio of the mean tumor size of the test group relative to the control group from one and multiplying the result times 100.
(§4) The results of several experiments in mice bearing a 6C3HED lymphosarcoma (or other tumor where indicated) when the indicated compounds were administered are provided in Table 2. In Table 2, column 1 gives the Example number of the compound used, column 2 lists the dose level in mg/kg, column 3 provides the percent inhibition of tumor growth, column 4 gives the number of mice which died relative to the total number of animals in the group, column 5 gives the method of administration of the compound, and column 6 gives the dosage schedule. The protocol used with other tumors was the same as with the 6C3HED lymphosarcoma.
(m) Tumor type Lewis Lung Carcinoma

CA755 adenocarcinoma = details: IP, DX 10
Procedure: as §1, §2, §3, §4
(h) Tumor type CA755 adenocarcinoma

[1] = system: X5563 Plasma Cell Myeloma; details: IP, DX 10
Procedure: as §1, §2, §3, §4
(p) Tumor type X5563 Plasma Cell Myeloma

M5 Ovarian Carcinoma = details: IP, DX 10, from day 5 after implant
Procedure: as §1, §2, §3, §4
(n) Tumor type M5 Ovarian Carcinoma

SMILES: Cc1ccc(S(=N)(=O)NC(=O)Nc2ccc(Cl)cc2)cc1C (stereo not drawn) [Example 36, N-[[(4-chlorophenyl)amino]carbonyl]-3,4-dimethylbenzenesulfonimidamide]
- Tox/Tot (mice which died / total) (6C3HED lymphosarcoma; IP, 0.25 mg/kg, BIDX 8): 0/10
- Tox/Tot (mice which died / total) (6C3HED lymphosarcoma; IP, 0.5 mg/kg, BIDX 8): 0/10
- Tox/Tot (mice which died / total) (6C3HED lymphosarcoma; IP, 1 mg/kg, BIDX 8): 0/10
- Tox/Tot (mice which died / total) (6C3HED lymphosarcoma; IP, 2 mg/kg, BIDX 8): 0/10
- Tox/Tot (mice which died / total) (6C3HED lymphosarcoma; IP, 3.125 mg/kg, DX 8): 0/10
- Tox/Tot (mice which died / total) (6C3HED lymphosarcoma; IP, 4 mg/kg, BIDX 8): 0/10
- Tox/Tot (mice which died / total) (6C3HED lymphosarcoma; IP, 6.25 mg/kg, DX 8): 0/10
- Tox/Tot (mice which died / total) (6C3HED lymphosarcoma; IP, 12.5 mg/kg, DX 8): 1/10
- Tox/Tot (mice which died / total) (6C3HED lymphosarcoma; IP, 12.5 mg/kg, Days 1, 3, 5, 7): 0/10
- Tox/Tot (mice which died / total) (6C3HED lymphosarcoma; IP, 25 mg/kg, DX 8): 2/10
- Tox/Tot (mice which died / total) (6C3HED lymphosarcoma; IP, 25 mg/kg, Days 1, 3, 5, 7): 0/10
- Tox/Tot (mice which died / total) (6C3HED lymphosarcoma; IP, 50 mg/kg, DX 8): 6/10
- Tox/Tot (mice which died / total) (6C3HED lymphosarcoma; IP, 50 mg/kg, Days 1, 3, 5, 7): 0/10
- Tox/Tot (mice which died / total) (6C3HED lymphosarcoma; IP, 100 mg/kg, Days 1, 3, 5, 7): 3/10
- inhibition in vivo at 0.25 mg/kg (6C3HED lymphosarcoma; Mus musculus, 6C3HED, ip, read-out: % inhibition of tumor growth, IP, 0.25 mg/kg, BIDX 8): 16%
- inhibition in vivo at 0.5 mg/kg (6C3HED lymphosarcoma; Mus musculus, 6C3HED, ip, read-out: % inhibition of tumor growth, IP, 0.5 mg/kg, BIDX 8): 29%
- inhibition in vivo at 1 mg/kg (6C3HED lymphosarcoma; Mus musculus, 6C3HED, ip, read-out: % inhibition of tumor growth, IP, 1 mg/kg, BIDX 8): 43%
- inhibition in vivo at 2 mg/kg (6C3HED lymphosarcoma; Mus musculus, 6C3HED, ip, read-out: % inhibition of tumor growth, IP, 2 mg/kg, BIDX 8): 75%
- inhibition in vivo at 3.125 mg/kg (6C3HED lymphosarcoma; Mus musculus, 6C3HED, ip, read-out: % inhibition of tumor growth, IP, 3.125 mg/kg, DX 8): 74%
- inhibition in vivo at 4 mg/kg (6C3HED lymphosarcoma; Mus musculus, 6C3HED, ip, read-out: % inhibition of tumor growth, IP, 4 mg/kg, BIDX 8): 97%
- inhibition in vivo at 6.25 mg/kg (6C3HED lymphosarcoma; Mus musculus, 6C3HED, ip, read-out: % inhibition of tumor growth, IP, 6.25 mg/kg, DX 8): 93%
- inhibition in vivo at 12.5 mg/kg (6C3HED lymphosarcoma; Mus musculus, 6C3HED, ip, read-out: % inhibition of tumor growth, IP, 12.5 mg/kg, DX 8): 98%
- inhibition in vivo at 12.5 mg/kg (6C3HED lymphosarcoma; Mus musculus, 6C3HED, ip, read-out: % inhibition of tumor growth, IP, 12.5 mg/kg, Days 1, 3, 5, 7): 88%
- inhibition in vivo at 25 mg/kg (6C3HED lymphosarcoma; Mus musculus, 6C3HED, ip, read-out: % inhibition of tumor growth, IP, 25 mg/kg, DX 8): 100%
- inhibition in vivo at 25 mg/kg (6C3HED lymphosarcoma; Mus musculus, 6C3HED, ip, read-out: % inhibition of tumor growth, IP, 25 mg/kg, Days 1, 3, 5, 7): 99%
- inhibition in vivo at 50 mg/kg (6C3HED lymphosarcoma; Mus musculus, 6C3HED, ip, read-out: % inhibition of tumor growth, IP, 50 mg/kg, DX 8): 100%
- inhibition in vivo at 50 mg/kg (6C3HED lymphosarcoma; Mus musculus, 6C3HED, ip, read-out: % inhibition of tumor growth, IP, 50 mg/kg, Days 1, 3, 5, 7): 99%
- inhibition in vivo at 100 mg/kg (6C3HED lymphosarcoma; Mus musculus, 6C3HED, ip, read-out: % inhibition of tumor growth, IP, 100 mg/kg, Days 1, 3, 5, 7): 100%
- inhibition in vivo at 6.25 mg/kg (6C3HED lymphosarcoma; Mus musculus, 6C3HED, po, read-out: % inhibition of tumor growth, oral, 6.25 mg/kg, BIDX 8): 100%
- inhibition in vivo at 12.5 mg/kg (6C3HED lymphosarcoma; Mus musculus, 6C3HED, po, read-out: % inhibition of tumor growth, oral, 12.5 mg/kg, BIDX 8): 100%
- inhibition in vivo at 25 mg/kg (6C3HED lymphosarcoma; Mus musculus, 6C3HED, po, read-out: % inhibition of tumor growth, oral, 25 mg/kg, BIDX 8): 100%
- inhibition in vivo at 50 mg/kg (6C3HED lymphosarcoma; Mus musculus, 6C3HED, po, read-out: % inhibition of tumor growth, oral, 50 mg/kg, BIDX 8): 100%
- inhibition in vivo at 150 mg/kg (6C3HED lymphosarcoma; Mus musculus, 6C3HED, po, read-out: % inhibition of tumor growth, oral, 150 mg/kg, BIDX 8): 99%
- Tox/Tot (mice which died / total) (6C3HED lymphosarcoma; oral, 6.25 mg/kg, BIDX 8): 2/8
- Tox/Tot (mice which died / total) (6C3HED lymphosarcoma; oral, 12.5 mg/kg, BIDX 8): 5/8
- Tox/Tot (mice which died / total) (6C3HED lymphosarcoma; oral, 25 mg/kg, BIDX 8): 2/8
- Tox/Tot (mice which died / total) (6C3HED lymphosarcoma; oral, 50 mg/kg, BIDX 8): 7/8
- % inhibition of tumor growth (6C3HED lymphosarcoma; oral, 100 mg/kg, BIDX 8): TOX
- Tox/Tot (mice which died / total) (6C3HED lymphosarcoma; oral, 100 mg/kg, BIDX 8): 8/8
- Tox/Tot (mice which died / total) (6C3HED lymphosarcoma; oral, 150 mg/kg, BIDX 8): 6/10
- % inhibition of tumor growth (6C3HED lymphosarcoma; oral, 300 mg/kg, BIDX 8): TOX
- Tox/Tot (mice which died / total) (6C3HED lymphosarcoma; oral, 300 mg/kg, BIDX 8): 10/10
- % inhibition of tumor growth (Lewis Lung Carcinoma; 7.5 mg/kg): 6%
- Tox/Tot (mice which died / total) (Lewis Lung Carcinoma; 7.5 mg/kg): 0/10
- % inhibition of tumor growth (Lewis Lung Carcinoma; 15 mg/kg): 32%
- Tox/Tot (mice which died / total) (Lewis Lung Carcinoma; 15 mg/kg): 0/10
- % inhibition of tumor growth (Lewis Lung Carcinoma; 30 mg/kg): 34%
- Tox/Tot (mice which died / total) (Lewis Lung Carcinoma; 30 mg/kg): 0/10
- % inhibition of tumor growth (CA755 adenocarcinoma; 3.75 mg/kg): 26%
- Tox/Tot (mice which died / total) (CA755 adenocarcinoma; 3.75 mg/kg): 0/10
- % inhibition of tumor growth (CA755 adenocarcinoma; 7.5 mg/kg): 1%
- Tox/Tot (mice which died / total) (CA755 adenocarcinoma; 7.5 mg/kg): 0/10
- % inhibition of tumor growth (CA755 adenocarcinoma; 15 mg/kg): 42%
- Tox/Tot (mice which died / total) (CA755 adenocarcinoma; 15 mg/kg): 0/10
- % inhibition of tumor growth (CA755 adenocarcinoma; 30 mg/kg): 72%
- Tox/Tot (mice which died / total) (CA755 adenocarcinoma; 30 mg/kg): 0/10
- % inhibition of tumor growth ([1]; 3.75 mg/kg): 35%
- Tox/Tot (mice which died / total) ([1]; 3.75 mg/kg): 0/10
- % inhibition of tumor growth ([1]; 7.5 mg/kg): 63%
- Tox/Tot (mice which died / total) ([1]; 7.5 mg/kg): 1/10
- % inhibition of tumor growth ([1]; 15 mg/kg): 88%
- Tox/Tot (mice which died / total) ([1]; 15 mg/kg): 4/10
- % inhibition of tumor growth ([1]; 30 mg/kg): 97%
- Tox/Tot (mice which died / total) ([1]; 30 mg/kg): 3/10
- % inhibition of tumor growth (M5 Ovarian Carcinoma; 3.75 mg/kg): 10%
- Tox/Tot (mice which died / total) (M5 Ovarian Carcinoma; 3.75 mg/kg): 0/10
- % inhibition of tumor growth (M5 Ovarian Carcinoma; 7.5 mg/kg): 19%
- Tox/Tot (mice which died / total) (M5 Ovarian Carcinoma; 7.5 mg/kg): 0/10
- % inhibition of tumor growth (M5 Ovarian Carcinoma; 15 mg/kg): 47%
- Tox/Tot (mice which died / total) (M5 Ovarian Carcinoma; 15 mg/kg): 0/10
- % inhibition of tumor growth (M5 Ovarian Carcinoma; 30 mg/kg): 38%
- Tox/Tot (mice which died / total) (M5 Ovarian Carcinoma; 30 mg/kg): 1/10
